Laboratory results published in ChEMBL document CHEMBL5150011, “Selection of QPX7831, an Orally Bioavailable Prodrug of Boronic Acid β-Lactamase Inhibitor QPX7728” (J Med Chem, 2021).

How the values were obtained:
[1] = Half life in human liver microsomes measured upto 30 min in presence of NADPH by HPLC analysis; format: ADME, Microsome
[2] = Half life in human serum measured upto 30 min by HPLC analysis; format: ADME, cell-free
[3] = Oral bioavailability in monkey; format: ADME, organism-based, Macaca mulatta; details: rhesus monkey, in vivo
[4] = Oral bioavailability in dog; format: ADME, organism-based, Canis lupus familiaris; details: in vivo
[5] = Oral bioavailability in rat; format: ADME, organism-based; details: in vivo
[6] = Solubility of the compound in FaSSIF using crystalline sample; format: physicochemical
[7] = Acid dissociation constant, pKa of the compound; format: physicochemical
[8] = Solubility of the compound in FeSSIF using crystalline sample; format: physicochemical
[9] = Solubility of compound in water at pH 7.2 using crystalline sample; format: physicochemical
[10] = Lipophilicity, logD of compound at pH 7.4; format: physicochemical; details: buffer
[11] = Solubility of compound in water in presence of 0.5 M PBS at pH 7.0 using crystalline sample; format: physicochemical; details: water with 0.5 M PBS
[12] = Oral bioavailability in rat at 30 mg/kg by LC/MS/MS analysis; format: ADME, organism-based; details: in vivo
[13] = Half life in rat liver microsomes measured upto 30 min in presence of NADPH by HPLC analysis; format: ADME, Microsome
[14] = Half life in dog liver microsomes measured upto 30 min in presence of NADPH by HPLC analysis; format: ADME, Canis lupus familiaris, Microsome
[15] = Oral bioavailability in monkey at 20 mg/kg by LC/MS/MS analysis; format: ADME, organism-based, Macaca mulatta; details: rhesus monkey, in vivo
[16] = Half life in monkey liver microsomes measured upto 30 min in presence of NADPH by HPLC analysis; format: ADME, Macaca mulatta, Microsome; details: rhesus monkey
[17] = Oral bioavailability in dog at 10 mg/kg by LC/MS/MS analysis; format: ADME, organism-based, Canis lupus familiaris; details: in vivo

Row | half-life [1] [min] | half-life [2] [min] | Structure (SMILES) | further results
1 | > 30 | – | CC(C)OC(=O)OCOC(=O)c1c(F)ccc2c1OB(O)[C@@H]1C[C@H]21 | –
2 | > 30 | 3.7 | Cc1oc(=O)oc1COC(=O)c1c(F)ccc2c1OB(O)[C@@H]1C[C@H]21 | –
3 | – | – | O=C(O)c1c(F)ccc2c1OB(O)[C@@H]1C[C@H]21 [XERUBORBACTAM] | bioavailability [3]: 20%; bioavailability [4]: 50%; bioavailability [5]: 50%
4 | > 30 | > 60 | COCCOC(=O)OCOC(=O)c1c(F)ccc2c1OB(O)[C@@H]1C[C@H]21 | –
5 | > 30 | > 60 | CCOC(=O)OCOC(=O)c1c(F)ccc2c1OB(O)[C@@H]1C[C@H]21 | –
6 | – | 3.9 | O=C(OCOC(=O)C1COC1)c1c(F)ccc2c1OB(O)[C@@H]1C[C@H]21 | –
7 | – | – | CC(C)C(=O)OCOC(=O)c1c(F)ccc2c1O[B-](O)(O)[C@@H]1C[C@H]21.[Na+] | solubility thermodynamic [6]: > 100 mg/mL; pKa [7]: 4.8; solubility thermodynamic [8]: > 100 mg/mL; solubility [9]: > 100 mg/mL; logD [10]: 0.33; solubility thermodynamic [11]: 10.6 mg/mL
8 | 28 | > 60 | CCCC(=O)OCOC(=O)c1c(F)ccc2c1OB(O)[C@@H]1C[C@H]21 | bioavailability [12]: 145%; half-life [13]: 3 min; half-life [14]: 11 min; bioavailability [15]: 104%; half-life [16]: 2 min; bioavailability [17]: 55.6%
9 | 27 | > 60 | O=C(OCOC(=O)c1c(F)ccc2c1OB(O)[C@@H]1C[C@H]21)OC1CCCCC1 | –
10 | > 30 | 11 | O=C(OCOC(=O)c1c(F)ccc2c1OB(O)[C@@H]1C[C@H]21)OC1COC1 | –
11 | 23 | 26 | O=C(OCOC(=O)C1CCOCC1)c1c(F)ccc2c1OB(O)[C@@H]1C[C@H]21 | –
12 | 8 | > 30 | CC(=O)OCOC(=O)c1c(F)ccc2c1OB(O)[C@@H]1C[C@H]21 | bioavailability [12]: 131%; half-life [13]: 3 min; half-life [14]: 15 min; bioavailability [15]: 103%; half-life [16]: 3 min; bioavailability [17]: 50.1%
13 | 14.3 | > 60 | O=C(OCOC(=O)C1CC1)c1c(F)ccc2c1OB(O)[C@@H]1C[C@H]21 | –
14 | 24 | > 30 | CC(=O)OCCOC(=O)OCOC(=O)c1c(F)ccc2c1OB(O)[C@@H]1C[C@H]21 | –
15 | > 30 | > 30 | O=C(OCOC(=O)c1c(F)ccc2c1OB(O)[C@@H]1C[C@H]21)OC1CCOCC1 | –
16 | > 30 | > 30 | CC(=O)N1CCC[C@@H]1C(=O)OCOC(=O)c1c(F)ccc2c1OB(O)[C@@H]1C[C@H]21 | –
17 | > 30 | > 60 | CN(C)C(=O)COC(=O)c1c(F)ccc2c1OB(O)[C@@H]1C[C@H]21 | –
18 | > 30 | > 60 | CN(C)C(=O)COC(=O)OCOC(=O)c1c(F)ccc2c1OB(O)[C@@H]1C[C@H]21 | –
19 | 9 | > 60 | CC(C)C(=O)OCOC(=O)c1c(F)ccc2c1OB(O)[C@@H]1C[C@H]21 | bioavailability [12]: 125%; half-life [13]: 5 min; half-life [14]: 23 min; bioavailability [15]: 106%; half-life [16]: 2 min; bioavailability [17]: 65%
